Test results published in US8545886B2, “Extended release tablet formulations of flibanserin and method for manufacturing the same” (Boehringer Ingelheim International GmbH, priority 2006, dated 2013).
Converted amounts (≈) assume the structure as drawn.

Test: Solubility of flibanserin in aqueous media
Format: physicochemical
Text: In acidic environment compounds such as flibanserin are usually very well water soluble whereas in neutral or basic environment these drugs can be practically insoluble. […] These physicochemical properties of basic compounds make it difficult to develop extended release dosage forms. There is a natural pH gradient from the acidity of the stomach where the pH of physiological fluids are typically around 1-2, through the weakly acidic duodenum to the virtually neutral environment of the small intestine where the pH is in the range of 5-8.

solubility (aqueous buffer, in 0.05 M phosphate buffer pH 6.8): 2 µg/mL (≈ 0.00512 mM)
solubility (simulated gastric fluid, in 0.1 N HCl): 6200 µg/mL (≈ 15.9 mM)
Compound: O=c1[nH]c2ccccc2n1CCN1CCN(c2cccc(C(F)(F)F)c2)CC1 [flibanserin, 1,3-dihydro-1-[2-[4-[3-(trifluoromethyl)phenyl]-1-piperazinyl]ethyl]-2H-benzimidazole-2-one]
